50 compounds from the METLIN SMRT retention time set (Domingo-Almenara et al. 2019) can be followed below.

This data set can be described thus: gradient 5% acetonitrile 3 min, to 50% in 2 min, to 85% in 15 min, held 3 min, 100 µL/min. To be noted: column: Zorbax Extend-C18 2.1 x 50 mm; eluents: water / acetonitrile, 0.1% formic acid. A digest of the protocol:
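Pure standards were run in mixtures of ~100 molecules by HPLC coupled to a quadrupole time-of-flight mass spectrometer. The column was a Zorbax Extend-C18 (2.1 × 50 mm, 1.8 μm) at 100 μL/min, with water and acetonitrile each containing 0.1% formic acid, in positive and negative ionization mode. Dead and dwell volumes were 40 μL and 900 μL. Retention time was taken from computationally picked adduct peaks, each manually inspected, with data collected over 3 months.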
In turn, `O=C(C1=NN(Cc2ccccc2Cl)c2ccccc2S1(=O)=O)N1CCOCC1` showed an RP-LC retention time of 873 s.
Compound `CC(C)CC(=O)Nc1nc(-c2ccc3c(c2)NC(=O)CO3)cs1` displayed an RP-LC retention time of 787 s.
Next, `COc1ccc(S(=O)(=O)CCC(=O)Nc2ccc(Cl)c3ncsc23)cc1`: 707 s.
Then `COc1ccc(C(=O)N2CCC3(CC2)NC(=O)c2cc(C)ccc2N3C)cc1OC`, with 711 s.
Next, `CCN1C(=O)c2ccccc2Oc2ccc(C(=O)N3CCC4(CC3)OCCO4)cc21`: 770 s; `COc1ccc2c(c1)C1(CCN(C(=O)Nc3cccc(F)c3)C1)C(=O)N2` (stereo not given): 683 s; `CCc1nc(N)n(CC(=O)Nc2cccc(C)c2)c(=O)c1C`: 610 s.
In the case of `CCOc1ccc(NC(=O)c2oc3ccc(Br)cc3c2C)c2cccnc12`, the RP-LC retention time is 815 s.
Then `CCOC(=O)c1cccc(N2C=C(C#N)S(=O)(=O)c3c(F)cccc32)c1`, with 907 s; and `CCn1ccc2c(cc(C(=O)Nc3ccc(C)c(Cl)c3)n2C)c1=O`, with 907 s.
Next, `O=C(Cn1nc(C2CC2)cc1C(=O)N1CCCC1)N1CCN(c2ccc(Cl)cc2)CC1`: 845 s.
Then `Cc1cccc(N2C(=O)C(O)=C(C(=O)c3cccs3)C2c2ccc(Cl)cc2)n1` (stereo not given), with 1040 s; and `Cc1cc(C)cc(NC(=O)C2CCN(S(C)(=O)=O)c3ccccc3O2)c1` (stereo not given), with 976 s.
As for `c1ccc(Cn2cnnc2C2CCCCN2Cc2ccoc2)cc1` (stereo not given), the RP-LC retention time was 601 s.
In turn, `O=C(CN1CCCCCC1)NCC12CCCC=C1NC(=O)CC2` (stereo not given) registered an RP-LC retention time of 567 s.
Then `CCn1ccc2ccc(CCC(=O)N3CCN(c4ccccc4)CC3)cc21`, with 1030 s; and `O=C(Cc1nc(-c2ccccn2)n[nH]1)Nc1ccc(F)cc1F`, with 652 s.
Next, `Cc1c(C(=O)N2CCC(C)CC2)cnn1-c1ccc(-c2nc(C(C)(C)C)no2)cn1`: 1250 s; `Cc1ccc(CNC(=O)C(C)Oc2cc(-c3ccccc3)c3c(C)nn(C)c3n2)o1` (stereo not given): 769 s; `CCOc1ccc(C(=O)N2CCc3c(c(-c4nc(C5CC5)no4)nn3C)C2)cc1`: 837 s.
Then `Cc1cc(N2CCCC2)n2nc(CN3CCc4ccccc4C3)nc2n1`, with 598 s.
`COc1cc(NC(=O)c2noc3c2CCCC3)cc(OC)c1OC` yielded an RP-LC retention time of 876 s.
`O=C(Nc1cccc(C(F)(F)F)c1)c1cnc(-c2ccc(F)cc2)nc1-c1ccncc1`: the RP-LC retention time worked out at 1060 s.
The compound `Cc1cc(NCCCC(=O)NC2CCCCC2)n2nc(-c3cccnc3)nc2n1` yielded an RP-LC retention time of 646 s.
`CCOc1ccc(C2CNC(=O)C2C(=O)OC)cc1OCC` (stereo not given) came in with an RP-LC retention time of 694 s.
For the compound `CC1CCCCN1CCNC(=O)c1ccc(-c2ccnc(N3CCCC3)n2)cc1` (stereo not given), the RP-LC retention time was 1230 s.
Then `CCCC(=O)Nc1ccc2c(c1)CN(C(=O)CC1CCCC1)C(C(=O)N(C)C)C2` (stereo not given), with 716 s; and `COC(=O)N1CCN(CCNC(=O)NC2CCCCC2)CC1`, with 503 s; and `Cc1ccc(-c2nnc(-c3ccccc3)o2)cc1S(=O)(=O)N1CCOCC1`, with 922 s.
Then `CCc1cc(=O)n(CC(=O)NCc2ccc(F)cc2F)c(N2CCOCC2)n1`, with 720 s; and `CCc1nc2cc(N3CCC(C(=O)Nc4ccc(OC)cc4)CC3)cnc2nc1CC`, with 827 s; and `COc1ccc(N2CCN(c3cc(SCC(=O)Nc4cccc(Cl)c4F)ncn3)CC2)cc1`, with 1190 s.
Then `CCCCOc1ccc(NC(=O)c2cc(=O)c3cc(CC)ccc3o2)c2cccnc12`, with 786 s.
Turning to `COc1ccc(C(=O)NCc2cccnc2OC)c(OC)n1`, the RP-LC retention time stood at 840 s.
Next, `O=C(CN1C(=O)C(C(=O)N2CCCC2)Sc2ccccc21)Nc1ccc(F)cc1` (stereo not given): 978 s.
Next, `COc1ccc(N2CCN(c3cc(SCC(=O)Nc4ccc(C)c(F)c4)ncn3)CC2)cc1`: 1030 s.
Next, `O=C(CCn1c(N2CCCC2)nc2ccsc2c1=O)NCc1ccc(F)cc1F`: 779 s.
The compound `CCN1C(=O)c2cccc3c(S(=O)(=O)Nc4cccc(C)n4)ccc1c23` yielded an RP-LC retention time of 635 s.
Next, `Cc1nnc(NC(=O)CSc2nnc(-c3cccs3)o2)s1`: 654 s.
`CCc1nc2c(c(=O)n1CC(=O)NCc1ccc(F)cc1)CN(Cc1ccccc1)CC2`: the RP-LC retention time stood at 649 s.
Next, `O=C(Nc1ccc(F)cc1F)C1CCN(C(=O)c2cccn2-c2cccnc2)CC1`: 696 s; `CC(C)Oc1ccccc1CN1C[C@@H]2C(=O)N(CCCN3CCCC3=O)C(=O)[C@@H]2C1`: 630 s.
Then `O=C(c1ccc(-c2cncnc2)nc1)N1CCN(c2ccccc2F)CC1`, with 760 s; and `Cc1nnc(N2CCCC(C(=O)NCc3ccccn3)C2)c2nn(-c3ccccc3)c(C)c12` (stereo not given), with 566 s.
For `O=C(Nc1cccc(Cl)c1)N1CCN(CCn2c(-c3ccncc3)nc3cccnc32)CC1`, the RP-LC retention time was determined as 623 s.
Compound `O=C([C@@H]1C[C@H](F)CN1C(=O)Nc1ccc(C(F)(F)F)cc1)N1CCCCC1` showed an RP-LC retention time of 821 s.
Next, `O=C(NCC1CC1)C1(CCO)CCN(Cc2ccccc2)C1` (stereo not given): 581 s; `CCn1cc(-c2nc(CC(=O)Nc3ccc(OC)c(F)c3)cs2)c2cccnc21`: 884 s; `CCN(CC)S(=O)(=O)c1ccc2c(c1)N(CC(=O)NCc1ccc(C)cc1)C(=O)C1CCCCN21` (stereo not given): 1030 s.
Next, `CN1CCCN(C(=O)c2cn3ccnc(-c4ccccc4)c3n2)CC1`: 710 s.
